Laboratory results as given in patent publication US20220402950A1, “SUBSTITUTED BENZIMIDAZOLES AS PAD4 INHIBITORS” (BRISTOL-MYERS SQUIBB COMPANY, priority 2018, published 2022).

Biological target: human PAD4 (hPAD4) (Homo sapiens, UniProt Q9UM07)
Experiment: RFMS Human PAD4 Functional Assay
Format: biochemical
Conditions: hPAD4 RFMS IC50, human PAD4, rapid-fire mass spectrum (RFMS) assay; 5 nM hPAD4, 250 μM BAEE
Procedure, shortened: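 RapidFire ESI-MS quantification, normalised to a modified-citrulline internal standard, after phenyl glyoxal (final 4 mM) derivatisation of the TCA-quenched reaction. The enzyme (10 nM) sat 30 min with compound (up to 50 μM final) before 500 μM BAEE (as added) started a 90 min, 37 °C reaction. Buffer: HEPES pH 7.5, 50 μM calcium, 5 μM TPEN.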

human PAD4 (hPAD4), sequence (Q9UM07 whole entry): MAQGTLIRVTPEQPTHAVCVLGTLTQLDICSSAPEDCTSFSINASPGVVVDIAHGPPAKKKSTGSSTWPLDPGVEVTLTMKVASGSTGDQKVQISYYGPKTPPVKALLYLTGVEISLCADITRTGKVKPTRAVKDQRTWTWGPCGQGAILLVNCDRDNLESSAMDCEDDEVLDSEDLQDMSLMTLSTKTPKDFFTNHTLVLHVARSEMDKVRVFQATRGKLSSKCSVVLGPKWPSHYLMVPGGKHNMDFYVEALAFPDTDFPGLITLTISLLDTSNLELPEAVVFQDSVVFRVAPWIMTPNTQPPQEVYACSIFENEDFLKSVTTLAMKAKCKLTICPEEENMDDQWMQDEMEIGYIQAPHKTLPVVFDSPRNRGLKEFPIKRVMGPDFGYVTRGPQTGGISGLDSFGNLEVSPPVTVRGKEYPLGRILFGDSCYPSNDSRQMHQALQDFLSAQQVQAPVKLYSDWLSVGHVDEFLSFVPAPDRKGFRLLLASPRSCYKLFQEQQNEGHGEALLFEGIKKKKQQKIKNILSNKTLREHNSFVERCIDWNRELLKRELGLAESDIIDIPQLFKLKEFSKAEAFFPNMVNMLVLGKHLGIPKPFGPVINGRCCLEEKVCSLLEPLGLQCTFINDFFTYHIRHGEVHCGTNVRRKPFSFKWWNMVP

IC50 [µM]	SMILES
0.144	COc1cc(C(=O)N2C[C@H]3CC[C@@H]2[C@@H]3N)cc2nc(-c3cc4cccc(-c5cccc6c5CNC6=O)c4n3CC3CC3)n(C)c12 [Example 96, 4-(2-{5-[(1R,4R,7R)-7-amino-2-azabicyclo[2.2.1]heptane-2-carbonyl]-7-methoxy-1-methyl-1H-1,3-benzodiazol-2-yl}-1-(cyclopropylmethyl)-1H-indol-7-yl)-2,3-dihydro-1H-isoindol-1-one]
0.023	COc1cc(C(=O)N2C[C@H]3CC[C@@H]2[C@@H]3N)cc2nc(-c3cc4cccc(-c5ccc6c(c5)CC(=O)N6)c4n3CC3CC3)n(C)c12 [Example 97, 2′-{5-[(1R,4R,7R)-7-amino-2-azabicyclo[2.2.1]heptane-2-carbonyl]-7-methoxy-1-methyl-1H-1,3-benzodiazol-2-yl}-1′-(cyclopropylmethyl)-2,3-dihydro-1H,1′H-[5,7′-biindole]-2-one]
0.035	COc1cc(C(=O)N2C[C@H]3CC[C@@H]2[C@@H]3N)cc2nc(-c3cc4cccc(-c5ccc6c(c5)C(=O)NC6)c4n3CC3CC3)n(C)c12 [Example 98, 6-(2-{5-[(1R,4R,7R)-7-amino-2-azabicyclo[2.2.1]heptane-2-carbonyl]-7-methoxy-1-methyl-1H-1,3-benzodiazol-2-yl}-1-(cyclopropylmethyl)-1H-indol-7-yl)-2,3-dihydro-1H-isoindol-1-one]
0.038	COc1cc(C(=O)N2C[C@H]3CC[C@@H]2[C@@H]3N)cc2nc(-c3cc4cccc(-c5ccc6c(c5)CCC(=O)N6)c4n3CC3CC3)n(C)c12 [Example 99, 6-(2-{5-[(1R,4R,7R)-7-amino-2-azabicyclo[2.2.1]heptane-2-carbonyl]-7-methoxy-1-methyl-1H-1,3-benzodiazol-2-yl}-1-(cyclopropylmethyl)-1H-indol-7-yl)-1,2,3,4-tetrahydroquinolin-2-one]
0.058	COc1cc(C(=O)N2C[C@H]3CC[C@@H]2[C@@H]3N)cc2nc(-c3cc4cccc(-c5ccc6[nH]c(=O)ccc6c5)c4n3CC3CC3)n(C)c12 [Example 100, 6-(2-{5-[(1R,4R,7R)-7-amino-2-azabicyclo[2.2.1]heptane-2-carbonyl]-7-methoxy-1-methyl-1H-1,3-benzodiazol-2-yl}-1-(cyclopropylmethyl)-1H-indol-7-yl)-1,2-dihydroquinolin-2-one]
0.047	COC(=O)c1cc(=O)[nH]c2ccc(-c3cccc4cc(-c5nc6cc(C(=O)N7C[C@H]8CC[C@@H]7[C@@H]8N)cc(OC)c6n5C)n(CC5CC5)c34)cc12 [Example 101, methyl 6-(2-{5-[(1R,4R,7R)-7-amino-2-azabicyclo[2.2.1]heptane-2-carbonyl]-7-methoxy-1-methyl-1H-1,3-benzodiazol-2-yl}-1-(cyclopropylmethyl)-1H-indol-7-yl)-2-oxo-1,2-dihydroquinoline-4-carboxylate]
0.131	COc1cc(C(=O)N2C[C@H]3CC[C@@H]2[C@@H]3N)cc2nc(-c3cc4cccc(-c5ccc6c(=O)[nH]ccc6c5)c4n3CC3CC3)n(C)c12 [Example 102, 6-(2-{5-[(1R,4R,7R)-7-amino-2-azabicyclo[2.2.1]heptane-2-carbonyl]-7-methoxy-1-methyl-1H-1,3-benzodiazol-2-yl}-1-(cyclopropylmethyl)-1H-indol-7-yl)-1,2-dihydroisoquinolin-1-one]
0.025	COc1cc(C(=O)N2C[C@H]3CC[C@@H]2[C@@H]3N)cc2nc(-c3cc4cccc(-c5ccc6c(c5)CNC6=O)c4n3CC3CC3)n(C)c12 [Example 103, 5-(2-{5-[(1R,4R,7R)-7-amino-2-azabicyclo[2.2.1]heptane-2-carbonyl]-7-methoxy-1-methyl-1H-1,3-benzodiazol-2-yl}-1-(cyclopropylmethyl)-1H-indol-7-yl)-2,3-dihydro-1H-isoindol-1-one]
0.093	COc1cc(C(=O)N2C[C@H]3CC[C@@H]2[C@@H]3N)cc2nc(-c3cc4cccc(-c5ccc(C(N)=O)c(Cl)c5)c4n3CC3CC3)n(C)c12 [Example 104, 4-(2-{5-[(1R,4R,7R)-7-amino-2-azabicyclo[2.2.1]heptane-2-carbonyl]-7-methoxy-1-methyl-1H-1,3-benzodiazol-2-yl}-1-(cyclopropylmethyl)-1H-indol-7-yl)-2-chlorobenzamide]
